Where two headings read alike, the source gives them in different places.

The conditions of series [1]: rcm bond, Grubbs II, toluene, 2.0 mM, 80.0 °C.
The target in the next series is HSP90 (Homo sapiens, UniProt P07900). Kind of series: HSP90 affinity, competition assay with geldanamycin. It counts as binding.
For the next series, the target named is T1, SRC (Homo sapiens, UniProt P12931).
T1 construct: host or cells: Sf9 insect cells (baculovirus)
Description: Radiometric protein kinase assay, SRC. To be noted: 1 μM ATP; read-out: Inhibitory activity (IC50:μM) SRC. In kind it is biochemical. The text has this:
(§1) All protein kinases were expressed in Sf9 insect cells as human recombinant GST-fusion proteins or His-tagged proteins by means of the baculovirus expression system. Kinases were purified by affinity chromatography using either GSH-agarose (Sigma) or Ni-NTH-agarose (Qiagen). The purity of each kinase was checked by SDS-PAGE/silver staining and the identity of each kinase was verified by western blot analysis with kinase specific antibodies or by mass spectroscopy.
(§2) A radiometric protein kinase assay (^33PanQinase® Activity Assay) was used for measuring the kinase activity of the 24 protein kinases. All kinase assays were performed in 96-well FlashPlates™ from Perkin Elmer (Boston, Mass., USA) in a 50 μl reaction volume. The reaction cocktail was pipetted in 4 steps in the following order: • 20 μl of assay buffer • 5 μl of ATP solution (in H2O) • 5 μl of test compound (in 10% DMSO) • 10 μl of substrate/10 […] of enzyme solution (premixed)
(§3) The assay for all enzymes contained 60 mM HEPES-NaOH, pH 7.5, 3 mM MgCl2, 3 mM MnCl2, 3 μM Na-orthovanadate, 1.2 mM DTT, 50 μg/ml PEG20000, 1 μM [γ-^33P]-ATP (approx. 5×10^05 cpm per well).
(§4) For the 24 kinase assays, the following amounts of enzyme and substrate were used per well:
(§5) The reaction cocktails were incubated at 30° C. for 80 minutes. The reaction was stopped with 50 μl of 2% (v/v) H3PO4, plates were aspirated and washed two times with 200 μl of 0.9% (w/v) NaCl or 200 μl H2O. Incorporation of ^33Pi was determined with a microplate scintillation counter (Microbeta Trilux, Wallac).
(§6) The median value of the counts in column 1 (n=8) of each assay plate was defined as “low control”. This value reflects unspecific binding of radioactivity to the plate in the absence of a protein kinase but in the presence of the substrate. The median value of the counts in column 7 of each assay plate (n=8) was taken as the “high control”, i.e. full activity in the absence of any inhibitor. The difference between high and low control was taken as 100% activity.
(§7) As part of the data evaluation the low control value from a particular plate was subtracted from the high control value as well as from all 80 “compound values” of the corresponding plate. The residual activity (in %) for each well of a particular plate was calculated by using the following formula: Res. Activity (%)=100×[(cpm of compound−low control)/(high control−low control)]
(§8) The residual activities for each concentration and the compound IC50 values were calculated using Quattro Workflow V2.1.0.0 (Quattro Research GmbH, Munich, Germany; www.quattro-research.com). The model used was “Sigmoidal response (variable slope)” with parameters “top” fixed at 100% and “bottom” at 0%.

For a further series, the target named is T2, Aurora-A (Homo sapiens, UniProt O14965).
T2 construct: host or cells: Sf9 insect cells (baculovirus)
T2 sequence (O14965 1-403): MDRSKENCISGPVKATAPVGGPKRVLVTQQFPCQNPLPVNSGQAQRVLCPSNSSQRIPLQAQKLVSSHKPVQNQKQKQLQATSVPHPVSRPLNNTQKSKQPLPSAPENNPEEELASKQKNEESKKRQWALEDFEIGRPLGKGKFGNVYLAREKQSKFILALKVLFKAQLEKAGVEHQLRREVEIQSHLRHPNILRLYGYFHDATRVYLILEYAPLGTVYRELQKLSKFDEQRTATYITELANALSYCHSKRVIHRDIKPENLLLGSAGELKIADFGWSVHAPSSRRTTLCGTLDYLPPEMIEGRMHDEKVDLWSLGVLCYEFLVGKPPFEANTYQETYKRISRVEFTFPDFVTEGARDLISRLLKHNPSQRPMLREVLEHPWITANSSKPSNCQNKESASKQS
Kind of series: Radiometric protein kinase assay, Aurora-A. In kind it is biochemical. Particulars: 1 μM ATP; read-out: Inhibitory activity (IC50:μM) Aurora-A.
From the text: as §1, §2, §3, §4, §5, §6, §7, §8

In the next series the target is T3, IGF1-R (Homo sapiens, UniProt P08069).
T3 construct: host or cells: Sf9 insect cells (baculovirus)
Kind of series: Radiometric protein kinase assay, IGF1-R. Particulars: 1 μM ATP; read-out: Inhibitory activity (IC50:μM) IGF1-R. In kind it is biochemical.
From the text: as §1, §2, §3, §4, §5, §6, §7, §8

Another series addresses T4, EGF-R (Homo sapiens, UniProt P00533).
T4 construct: host or cells: Sf9 insect cells (baculovirus)
Kind of series: Radiometric protein kinase assay, EGF-R. In kind it is biochemical. Particulars: 1 μM ATP; read-out: Inhibitory activity (IC50:μM) EGF-R.
From the text: as §1, §2, §3, §4, §5, §6, §7, §8

For a further series, the system named is panel of 24 kinase. Kind of series: Radiometric protein kinase assay (33PanQinase), panel of 24 kinases. It counts as biochemical, human. Particulars: at 10 μM.
From the text: as §1
A radiometric protein kinase assay (^33PanQinase® Activity Assay) was used for measuring the kinase activity of the 24 protein kinases.
as §3, §5, §6, §7

T1 sequence (P12931 whole entry): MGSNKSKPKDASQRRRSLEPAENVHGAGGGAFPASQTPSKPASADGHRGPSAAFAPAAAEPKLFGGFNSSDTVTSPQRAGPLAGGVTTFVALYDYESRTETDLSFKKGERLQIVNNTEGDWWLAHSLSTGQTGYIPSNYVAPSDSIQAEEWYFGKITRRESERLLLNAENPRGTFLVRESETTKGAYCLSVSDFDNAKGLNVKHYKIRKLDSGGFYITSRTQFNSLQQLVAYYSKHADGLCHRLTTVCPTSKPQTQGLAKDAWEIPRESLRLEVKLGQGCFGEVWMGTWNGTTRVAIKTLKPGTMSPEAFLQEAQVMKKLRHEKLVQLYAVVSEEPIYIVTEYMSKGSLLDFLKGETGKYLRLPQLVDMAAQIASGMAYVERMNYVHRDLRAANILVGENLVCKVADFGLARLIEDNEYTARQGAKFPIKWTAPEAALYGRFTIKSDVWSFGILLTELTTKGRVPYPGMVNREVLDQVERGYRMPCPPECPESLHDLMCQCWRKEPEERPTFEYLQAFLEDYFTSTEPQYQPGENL
T3 sequence (P08069 31-1367): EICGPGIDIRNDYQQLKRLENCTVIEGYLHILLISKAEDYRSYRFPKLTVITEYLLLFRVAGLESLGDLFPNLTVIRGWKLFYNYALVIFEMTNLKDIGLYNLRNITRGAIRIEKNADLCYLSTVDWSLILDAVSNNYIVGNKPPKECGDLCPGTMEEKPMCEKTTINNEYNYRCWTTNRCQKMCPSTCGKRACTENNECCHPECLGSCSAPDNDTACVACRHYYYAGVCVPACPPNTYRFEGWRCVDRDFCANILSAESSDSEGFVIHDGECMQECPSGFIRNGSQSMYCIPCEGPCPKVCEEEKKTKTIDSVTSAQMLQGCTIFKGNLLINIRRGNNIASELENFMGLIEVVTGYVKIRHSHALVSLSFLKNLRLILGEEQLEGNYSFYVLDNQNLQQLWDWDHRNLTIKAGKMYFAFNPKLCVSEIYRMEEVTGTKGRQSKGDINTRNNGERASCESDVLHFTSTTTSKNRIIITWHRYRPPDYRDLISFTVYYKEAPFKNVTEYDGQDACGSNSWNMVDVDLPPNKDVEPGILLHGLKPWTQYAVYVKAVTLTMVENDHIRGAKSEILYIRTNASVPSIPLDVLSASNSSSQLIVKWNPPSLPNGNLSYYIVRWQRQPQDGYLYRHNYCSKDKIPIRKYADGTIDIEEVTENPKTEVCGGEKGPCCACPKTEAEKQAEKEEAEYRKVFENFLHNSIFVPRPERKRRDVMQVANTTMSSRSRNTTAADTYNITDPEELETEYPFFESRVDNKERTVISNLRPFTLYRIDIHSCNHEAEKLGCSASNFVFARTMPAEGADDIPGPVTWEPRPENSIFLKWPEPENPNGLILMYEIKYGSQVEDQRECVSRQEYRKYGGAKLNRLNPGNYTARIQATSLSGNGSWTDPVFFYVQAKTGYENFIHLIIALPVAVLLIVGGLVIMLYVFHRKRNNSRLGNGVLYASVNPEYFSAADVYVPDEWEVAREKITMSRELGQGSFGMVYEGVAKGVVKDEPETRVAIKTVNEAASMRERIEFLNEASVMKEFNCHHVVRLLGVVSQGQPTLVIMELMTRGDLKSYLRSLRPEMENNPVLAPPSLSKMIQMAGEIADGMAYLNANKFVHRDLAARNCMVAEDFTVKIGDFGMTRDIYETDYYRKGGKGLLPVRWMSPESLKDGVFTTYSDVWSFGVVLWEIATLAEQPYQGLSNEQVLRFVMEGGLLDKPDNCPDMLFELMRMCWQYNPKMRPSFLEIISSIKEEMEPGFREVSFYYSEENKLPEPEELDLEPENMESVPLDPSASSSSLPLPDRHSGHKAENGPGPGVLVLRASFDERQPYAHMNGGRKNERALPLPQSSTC
T4 sequence (P00533 25-1210): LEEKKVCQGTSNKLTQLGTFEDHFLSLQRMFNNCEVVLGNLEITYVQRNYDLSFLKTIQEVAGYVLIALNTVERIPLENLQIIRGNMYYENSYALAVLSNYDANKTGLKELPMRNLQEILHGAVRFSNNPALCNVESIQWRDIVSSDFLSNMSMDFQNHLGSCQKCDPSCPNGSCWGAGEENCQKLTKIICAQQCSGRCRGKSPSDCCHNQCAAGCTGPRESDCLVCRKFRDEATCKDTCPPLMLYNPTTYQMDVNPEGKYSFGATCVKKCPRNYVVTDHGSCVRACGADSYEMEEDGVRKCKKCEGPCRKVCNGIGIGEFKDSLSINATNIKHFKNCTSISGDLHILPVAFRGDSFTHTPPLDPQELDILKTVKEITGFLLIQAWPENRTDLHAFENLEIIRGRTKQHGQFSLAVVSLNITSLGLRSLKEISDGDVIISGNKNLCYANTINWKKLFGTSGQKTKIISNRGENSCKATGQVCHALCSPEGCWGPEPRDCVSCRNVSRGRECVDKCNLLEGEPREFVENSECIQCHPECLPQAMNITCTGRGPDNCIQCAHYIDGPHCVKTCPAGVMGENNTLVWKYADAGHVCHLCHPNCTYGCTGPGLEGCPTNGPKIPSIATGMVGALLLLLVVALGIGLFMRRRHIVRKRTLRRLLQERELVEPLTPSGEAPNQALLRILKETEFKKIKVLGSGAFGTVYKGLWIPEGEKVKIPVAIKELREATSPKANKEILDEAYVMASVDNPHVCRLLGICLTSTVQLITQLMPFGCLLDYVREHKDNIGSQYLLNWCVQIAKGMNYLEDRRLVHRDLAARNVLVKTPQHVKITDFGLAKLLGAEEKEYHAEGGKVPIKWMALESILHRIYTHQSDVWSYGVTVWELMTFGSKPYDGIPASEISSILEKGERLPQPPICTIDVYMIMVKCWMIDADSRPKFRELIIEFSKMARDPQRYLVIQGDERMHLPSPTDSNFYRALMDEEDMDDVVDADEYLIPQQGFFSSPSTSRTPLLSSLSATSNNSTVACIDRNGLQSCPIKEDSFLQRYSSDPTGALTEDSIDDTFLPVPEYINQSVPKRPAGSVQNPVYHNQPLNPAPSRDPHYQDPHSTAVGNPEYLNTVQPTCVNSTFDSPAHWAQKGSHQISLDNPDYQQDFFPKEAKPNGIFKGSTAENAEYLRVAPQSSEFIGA

`CCOCOc1cc(OCOCC)c2c(c1Cl)CC(=O)C=CCCC=CC[C@@H](C)OC2=O` returned a ring closure, yield of all isomers in series [1] (from C=CCCC=CC(=O)Cc1c(Cl)c(OCOCC)cc(OCOCC)c1C(=O)O[C@H](C)CC=C) of 94%.

With `CCOCOc1cc2c(c(OCOCC)c1)C(=O)O[C@H](C)CC=CCCC=CC(=O)C2`, in series [1] (from C=CCCC=CC(=O)Cc1cc(OCOCC)cc(OCOCC)c1C(=O)O[C@H](C)CC=C, 2 steps), the ring closure, yield of all isomers was determined as 40%.

In turn, `C[C@@H]1CC=CCC/C=C/C(=O)Cc2c(Cl)c(OCOCC[Si](C)(C)C)cc(OCOCC[Si](C)(C)C)c2C(=O)O1` displayed a ring closure, yield of all isomers in series [1] (from C=CCC/C=C/C(=O)Cc1c(Cl)c(OCOCC[Si](C)(C)C)cc(OCOCC[Si](C)(C)C)c1C(=O)O[C@H](C)CC=C, 12.0 h) of 87%.

Turning to `C[C@@H]1CC=CCC/C=C/C(=O)Cc2c(Cl)c(O[Si](C)(C)C(C)(C)C)cc(O[Si](C)(C)C(C)(C)C)c2C(=O)O1`, the ring closure, yield of all isomers in series [1] (from C=CCC/C=C/C(=O)Cc1c(Cl)c(O[Si](C)(C)C(C)(C)C)cc(O[Si](C)(C)C(C)(C)C)c1C(=O)O[C@H](C)CC=C, 12.0 h) was 87%.

`CCOCOc1cc(OCOCC)c2c(c1Cl)CC(=O)C=CCCC=CCC(C)OC2=O` (centres unmarked) [2-112, 1-Chloro-2,4-bis-ethoxymethoxy-7-methyl-7,8,11,12-tetrahydro-16H-6-oxa-benzocyclotetradecene-5,15-dione]: at HSP90, the “affinity for / inhibition of HSP90 (in words)” value is reported as “no affinity”.

Regarding `CCOCOc1cc2c(c(OCOCC)c1)C(=O)OC(C)CC=CCCC=CC(=O)C2` (centres unmarked) [2-120, 2,4-Bis-ethoxymethoxy-7-methyl-7,8,11,12-tetrahydro-16H-6-oxa-benzocyclotetradecene-5,15-dione], on HSP90, the “affinity for / inhibition of HSP90 (in words)” value was “no affinity”.

As to `COC1CC/C=C/C[C@H](c2ccccc2)OC(=O)c2c(O)cc(O)c(Cl)c2CC(=O)C1` (some centres unmarked) [A2], the IC50 at SRC turned out to be 8 µM.

Consider `O=C1Cc2c(Cl)c(O)cc(O)c2C(=O)O[C@H](c2ccccc2)C/C=C/CCC(Cl)C1` (some centres unmarked) [A3], for which the IC50 on Aurora-A turned out to be 12 µM.

With `O=C1/C=C/CCC2OC2C[C@H](c2ccccc2)OC(=O)c2c(O)cc(O)c(Cl)c2C1` (some centres unmarked) [A5], at IGF1-R, the IC50 came to 11 µM.

For `CCOCOc1cc2c(c(OCOCC)c1)C(=O)O[C@H](c1ccccc1)C/C=C/CC/C=C/C(=O)C2` [A-1], the IC50 at SRC is 11 µM; at EGF-R, 33 µM; at IGF1-R it was 23 µM.

For `C[C@@H]1C/C=C/CC/C=C/C(=O)Cc2c(Cl)c(O)cc(O)c2C(=O)O1` [pochonin D, reference compound], the “inhibition in a panel of 24 kinase” value in the series with panel of 24 kinase is on record as “no significant activity”. Also, on HSP90, the half-maximal inhibitory concentration (IC50) is 0.08 µM.

Usually IC50 stands for the midpoint of a concentration-inhibition curve.

For the origin of these results see US8450305B2, “Macrocyclic compounds useful as inhibitors of kinases and HSP90” (Universite de Strasbourg, priority 2006, dated 2013).
